Holding throughout (test): biochemical
Assay type in all cases: biochemical

The target in test [1] is T1, 382 unique human kinases (Homo sapiens, UniProt Q15139).
T1 construct: purchased Reaction Biology (HotSpot contract assay)
T1 sequence (Q15139 1-912): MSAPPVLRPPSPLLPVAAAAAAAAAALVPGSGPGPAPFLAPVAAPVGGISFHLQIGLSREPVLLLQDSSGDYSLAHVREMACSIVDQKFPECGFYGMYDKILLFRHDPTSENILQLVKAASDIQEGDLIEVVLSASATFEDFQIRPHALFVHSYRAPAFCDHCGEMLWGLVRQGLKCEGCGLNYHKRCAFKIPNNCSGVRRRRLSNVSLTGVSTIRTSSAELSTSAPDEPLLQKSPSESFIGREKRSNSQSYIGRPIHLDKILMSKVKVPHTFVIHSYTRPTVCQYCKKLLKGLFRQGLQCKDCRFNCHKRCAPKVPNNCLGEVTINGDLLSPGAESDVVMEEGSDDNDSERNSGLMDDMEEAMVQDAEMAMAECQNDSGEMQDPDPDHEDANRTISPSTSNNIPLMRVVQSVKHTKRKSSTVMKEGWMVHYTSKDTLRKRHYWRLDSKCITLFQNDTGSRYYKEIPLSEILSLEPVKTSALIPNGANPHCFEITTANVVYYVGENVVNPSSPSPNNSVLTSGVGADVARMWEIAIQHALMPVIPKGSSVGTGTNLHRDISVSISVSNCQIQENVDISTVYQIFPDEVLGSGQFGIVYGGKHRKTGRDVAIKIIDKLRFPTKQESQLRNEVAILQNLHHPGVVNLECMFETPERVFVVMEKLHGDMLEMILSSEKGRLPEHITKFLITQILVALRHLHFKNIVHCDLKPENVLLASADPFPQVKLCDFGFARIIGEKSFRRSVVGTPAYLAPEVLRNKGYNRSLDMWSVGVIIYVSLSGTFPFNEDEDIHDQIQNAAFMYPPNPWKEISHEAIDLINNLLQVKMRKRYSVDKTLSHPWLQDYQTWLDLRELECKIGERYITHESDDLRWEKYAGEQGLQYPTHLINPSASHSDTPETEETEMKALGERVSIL
The conditions noted are these: PKCmu/PRKD1, 10 uM; for remaining activity at 10 µM: read-out: % Enzyme Activity (relative to DMSO controls).

Test [2] has as its target T2, 382 unique human kinases (Homo sapiens, UniProt Q9NWZ3).
T2 construct: purchased Reaction Biology (HotSpot contract assay)
T2 sequence (Q9NWZ3 1-460): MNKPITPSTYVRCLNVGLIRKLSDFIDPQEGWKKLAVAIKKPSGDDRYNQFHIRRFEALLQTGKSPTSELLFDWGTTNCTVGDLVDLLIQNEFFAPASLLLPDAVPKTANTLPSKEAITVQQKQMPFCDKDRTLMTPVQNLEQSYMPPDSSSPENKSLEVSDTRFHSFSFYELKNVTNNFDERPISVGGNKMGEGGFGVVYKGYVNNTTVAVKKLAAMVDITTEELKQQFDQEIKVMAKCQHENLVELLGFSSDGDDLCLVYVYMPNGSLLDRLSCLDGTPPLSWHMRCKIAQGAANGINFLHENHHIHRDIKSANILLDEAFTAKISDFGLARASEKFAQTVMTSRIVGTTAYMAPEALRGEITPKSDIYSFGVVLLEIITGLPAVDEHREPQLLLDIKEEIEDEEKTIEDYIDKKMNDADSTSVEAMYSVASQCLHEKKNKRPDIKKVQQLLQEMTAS
The conditions noted are these: kinase IRAK4, compound 10 uM; for remaining activity at 10 µM: read-out: % Enzyme Activity (relative to DMSO controls).

Test [3] has as its target T3, 382 unique human kinases (Homo sapiens, UniProt P15735).
T3 construct: purchased Reaction Biology (HotSpot contract assay)
T3 sequence (P15735 1-406): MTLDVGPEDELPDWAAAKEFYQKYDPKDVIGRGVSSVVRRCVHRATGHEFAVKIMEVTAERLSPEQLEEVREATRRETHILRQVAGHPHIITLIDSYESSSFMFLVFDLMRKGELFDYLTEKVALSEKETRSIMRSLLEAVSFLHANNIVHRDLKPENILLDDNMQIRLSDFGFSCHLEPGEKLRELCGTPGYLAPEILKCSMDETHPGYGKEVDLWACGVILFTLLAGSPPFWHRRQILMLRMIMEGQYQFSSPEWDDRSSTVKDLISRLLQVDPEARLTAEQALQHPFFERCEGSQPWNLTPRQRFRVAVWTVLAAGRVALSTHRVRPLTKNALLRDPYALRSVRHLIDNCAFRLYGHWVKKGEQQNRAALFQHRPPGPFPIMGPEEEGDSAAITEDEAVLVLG
The note with it: PHKg2, compound at 10 uM, duplicate values; for remaining activity at 10 µM: read-out: % Enzyme Activity (relative to DMSO controls).

Test [4] concerns the target T4, 382 unique human kinases (Homo sapiens, UniProt Q9UEW8).
T4 construct: purchased Reaction Biology (HotSpot contract assay)
The note with it: STK39/STLK3, 10 uM; for remaining activity at 10 µM: read-out: % Enzyme Activity (relative to DMSO controls).

Test [5] has as its target T5, 382 unique human kinases (Homo sapiens, UniProt Q86SG6).
T5 construct: purchased Reaction Biology (HotSpot contract assay)
T5 sequence (Q86SG6 1-692): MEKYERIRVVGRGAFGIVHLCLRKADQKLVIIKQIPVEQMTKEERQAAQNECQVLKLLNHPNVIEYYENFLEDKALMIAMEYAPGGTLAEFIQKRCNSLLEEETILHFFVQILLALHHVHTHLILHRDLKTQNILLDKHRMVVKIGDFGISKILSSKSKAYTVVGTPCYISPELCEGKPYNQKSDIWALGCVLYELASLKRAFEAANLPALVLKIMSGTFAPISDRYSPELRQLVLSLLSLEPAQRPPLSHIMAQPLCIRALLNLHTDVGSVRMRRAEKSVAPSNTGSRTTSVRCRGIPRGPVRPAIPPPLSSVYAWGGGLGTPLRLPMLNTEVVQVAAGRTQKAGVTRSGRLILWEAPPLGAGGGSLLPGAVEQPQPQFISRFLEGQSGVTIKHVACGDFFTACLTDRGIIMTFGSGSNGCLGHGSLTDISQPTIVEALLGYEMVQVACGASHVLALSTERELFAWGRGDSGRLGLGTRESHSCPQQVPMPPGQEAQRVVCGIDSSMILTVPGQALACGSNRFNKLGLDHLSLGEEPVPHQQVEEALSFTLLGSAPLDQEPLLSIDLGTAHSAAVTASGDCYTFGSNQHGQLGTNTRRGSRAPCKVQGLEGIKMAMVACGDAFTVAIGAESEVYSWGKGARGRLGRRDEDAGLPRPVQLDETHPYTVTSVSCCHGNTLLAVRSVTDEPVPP
The note with it: NEK8, [ATP] 100 µM, compound 10 uM; for remaining activity at 10 µM: read-out: % Enzyme Activity (relative to DMSO controls).

For test [6], the target named is T6, 382 unique human kinases (Homo sapiens, UniProt O75914).
T6 construct: purchased Reaction Biology (HotSpot contract assay)
The note with it: PAK3, 10 uM; for remaining activity at 10 µM: read-out: % Enzyme Activity (relative to DMSO controls).

T6 sequence (O75914 whole entry): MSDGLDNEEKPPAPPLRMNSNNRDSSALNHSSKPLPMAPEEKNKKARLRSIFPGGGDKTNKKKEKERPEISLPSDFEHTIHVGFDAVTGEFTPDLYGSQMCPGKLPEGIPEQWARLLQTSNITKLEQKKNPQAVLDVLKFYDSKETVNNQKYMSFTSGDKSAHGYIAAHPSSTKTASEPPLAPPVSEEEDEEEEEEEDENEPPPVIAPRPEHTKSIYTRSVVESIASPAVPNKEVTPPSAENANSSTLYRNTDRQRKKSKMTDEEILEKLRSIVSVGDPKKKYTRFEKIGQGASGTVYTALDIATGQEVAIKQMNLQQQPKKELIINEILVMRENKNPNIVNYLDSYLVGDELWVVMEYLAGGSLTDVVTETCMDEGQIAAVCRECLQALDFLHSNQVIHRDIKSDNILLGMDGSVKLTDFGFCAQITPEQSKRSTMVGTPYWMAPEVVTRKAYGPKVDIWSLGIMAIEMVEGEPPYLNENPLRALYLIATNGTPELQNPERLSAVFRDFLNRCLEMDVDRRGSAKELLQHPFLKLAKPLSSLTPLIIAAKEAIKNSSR

As to `CC(C)c1cc(-c2n[nH]c(=O)n2-c2ccc3c(ccn3C)c2)c(O)cc1O` [Ganetespib (STA9090)], the remaining activity at 10 µM is 84% in test [1], 81.5% in test [2], 105% in test [3] and 70.5% in test [4].

In the case of `CC(C)c1cc(-c2n[nH]c(=O)n2-c2ccc3c(ccn3C)c2)c(O)cc1O` [Ganetespib], the remaining activity at 10 µM in test [5] was 56.7%; in test [6], 98.1%.

Turning to `CCNC(=O)c1noc(-c2cc(C(C)C)c(O)cc2O)c1-c1ccc(CN2CCOCC2)cc1` [Luminespib (AUY-922)], the “% Enzyme Activity (relative to DMSO controls)” value in test [1] is given as 86.44%; in test [2], 106.93%; in test [3], 106.26%; in test [4], 90.56%. In addition, the remaining activity at 10 µM in test [1] is 86.5%; in test [2], 118%; in test [3] it was 107%; in test [4], 93.8%.

With `CCNC(=O)c1noc(-c2cc(C(C)C)c(O)cc2O)c1-c1ccc(CN2CCOCC2)cc1` [Luminespib], in test [5], the “% Enzyme Activity (relative to DMSO controls)” value came out at 93.87% and the remaining activity at 10 µM stood at 94.8%. For the same compound, in test [6], the “% Enzyme Activity (relative to DMSO controls)” value came to 107.82% and the remaining activity at 10 µM was found to be 108%.

The record behind these values is PMC8550792, “Evolution of kinase polypharmacology across HSP90 drug discovery” (Cell Chemical Biology, 2021).
